Measured values: PubChem BioAssay (NCI)
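In this assay, cells in 96-well plates receive the compound at five concentrations for 48 hours. Endpoints are linearly interpolated between the surrounding concentrations. GI50 = concentration required for 50% inhibition of growth. At the TGI there is no net growth.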

Legend:
Experiment in all cases: NCI anticancer screen, dose series, 48 h
[1] = system: MDA-MB-435
[2] = system: ACHN renal
[3] = system: KM12 colon
[4] = system: PC-3 prostate
[5] = system: NCI-H23 lung
[6] = system: OVCAR-8 ovarian
[7] = system: HOP-92 NSCLC
[8] = system: SNB-75 CNS
[9] = system: SK-MEL-5 melanoma
[10] = system: MDA-N
[11] = system: U251 CNS
[12] = system: TK-10 renal
[13] = system: HCT-116 colon
[14] = system: SK-MEL-28 melanoma
[15] = system: DU-145 prostate
[16] = system: SF-268 CNS
[17] = system: EKVX NSCLC
[18] = system: SF-295 CNS
[19] = system: A549 NSCLC
[20] = system: HT29 colon
[21] = system: IGROV1 ovarian
[22] = system: M14 melanoma
[23] = system: CAKI-1 renal
[24] = system: NCI/ADR-RES ovarian
[25] = system: COLO 205 colon
[26] = system: OVCAR-5 ovarian
[27] = system: OVCAR-4 ovarian
[28] = system: RXF 393 renal
[29] = system: MDA-MB-231 breast
[30] = system: SNB-19 CNS
[31] = system: SN12C renal
[32] = system: SW-620 colon
[33] = system: OVCAR-3 ovarian
[34] = system: HCT-15 colon
[35] = system: UO-31 renal
[36] = system: SF-539 CNS
[37] = system: A498 renal
[38] = system: NCI-H226 lung
[39] = system: HS 578T breast
[40] = system: SR leukemia
[41] = system: SK-MEL-2 melanoma
[42] = system: RPMI-8226 leukemia
[43] = system: 786-0 renal
[44] = system: HCC-2998 colon
[45] = system: HOP-62 NSCLC
[46] = system: MOLT-4 leukemia
[47] = system: T-47D breast
[48] = system: UACC-62 melanoma
[49] = system: NCI-H522 lung
[50] = system: MALME-3M melanoma
[51] = system: UACC-257 melanoma
[52] = system: HL-60(TB) leukemia
[53] = system: BT-549 breast
[54] = system: SK-OV-3 ovarian
[55] = system: LOX IMVI melanoma
[56] = system: K-562 leukemia
[57] = system: CCRF-CEM leukemia
[58] = system: NCI-H460 lung
[59] = system: MCF7 breast

COc1cc2c(cc1OC)C1C[C@]3(CCN1CC2)C(=O)N(c1ccccc1)C(=O)N3C(C)=O (some centres not stated)
TGI [1]: > 200000 nM | TGI [2]: > 200000 nM | TGI [3]: > 200000 nM | TGI [4]: > 200000 nM | TGI [5]: > 200000 nM | TGI [6]: > 200000 nM | TGI [7]: > 200000 nM | TGI [8]: > 200000 nM | TGI [9]: > 200000 nM | TGI [10]: > 200000 nM | TGI [11]: > 200000 nM | TGI [12]: > 200000 nM | TGI [13]: > 200000 nM | TGI [14]: > 200000 nM | TGI [15]: > 200000 nM | TGI [16]: > 200000 nM | TGI [17]: > 200000 nM | TGI [18]: > 200000 nM | TGI [19]: > 200000 nM | TGI [20]: > 200000 nM | TGI [21]: > 200000 nM | TGI [22]: > 200000 nM | TGI [23]: > 200000 nM | TGI [24]: > 200000 nM | TGI [25]: > 200000 nM | TGI [26]: > 200000 nM | TGI [27]: > 200000 nM | TGI [28]: > 200000 nM | TGI [29]: > 200000 nM | TGI [30]: > 200000 nM | TGI [31]: > 200000 nM | TGI [32]: > 200000 nM | TGI [33]: > 200000 nM | TGI [34]: > 200000 nM | TGI [35]: > 200000 nM | TGI [36]: > 200000 nM | TGI [37]: > 200000 nM | TGI [38]: > 200000 nM

CS(=O)(=O)Nc1cc(-c2ccc3ncnc(Nc4c(Cl)ccc5c4OCO5)c3c2)cnc1Cl
GI50 [1]: 251 nM | TGI [1]: 1630 nM | GI50 [2]: 186 nM | TGI [2]: > 48100 nM | GI50 [3]: 465 nM | TGI [3]: 1870 nM | GI50 [4]: 178 nM | TGI [4]: 1770 nM | GI50 [39]: 47.7 nM | TGI [39]: 521 nM | GI50 [5]: 250 nM | TGI [5]: 4000 nM | GI50 [6]: 387 nM | GI50 [7]: 59.7 nM | TGI [7]: 639 nM | TGI [8]: 97.2 nM | GI50 [9]: 191 nM | TGI [9]: 465 nM | GI50 [40]: 325 nM | TGI [40]: 3410 nM | GI50 [11]: 331 nM | TGI [11]: 2630 nM | GI50 [12]: 47 nM | TGI [12]: 888 nM | GI50 [13]: 269 nM | TGI [13]: 1970 nM | GI50 [41]: 232 nM | TGI [41]: 1040 nM | GI50 [14]: 120 nM | TGI [14]: 1030 nM | GI50 [15]: 240 nM | TGI [15]: 5010 nM | GI50 [16]: 119 nM | TGI [16]: 1480 nM | GI50 [42]: 148 nM | TGI [42]: 566 nM | GI50 [17]: 116 nM | TGI [17]: 824 nM | GI50 [18]: 171 nM | TGI [18]: 1100 nM | GI50 [19]: 255 nM | TGI [19]: 1940 nM | GI50 [20]: 238 nM | TGI [20]: 3930 nM | GI50 [43]: 233 nM | TGI [43]: 6460 nM | GI50 [44]: 262 nM | TGI [44]: 1510 nM | GI50 [21]: 33.2 nM | TGI [21]: 209 nM | GI50 [45]: 156 nM | TGI [45]: 3530 nM | GI50 [46]: 165 nM | TGI [46]: 760 nM | GI50 [22]: 200 nM | TGI [22]: 1480 nM | GI50 [23]: 53 nM | TGI [23]: 869 nM | GI50 [47]: 24.3 nM | TGI [47]: 606 nM | GI50 [24]: 477 nM | TGI [24]: 4190 nM | GI50 [48]: 73.2 nM | TGI [48]: 785 nM | GI50 [49]: 224 nM | TGI [49]: 2560 nM | GI50 [25]: 263 nM | TGI [25]: 1350 nM | GI50 [26]: 164 nM | TGI [26]: 2100 nM | GI50 [50]: 52.5 nM | TGI [50]: 515 nM | GI50 [27]: 348 nM | TGI [27]: 4450 nM | GI50 [51]: 208 nM | TGI [51]: 3320 nM | GI50 [52]: 159 nM | TGI [52]: 920 nM | GI50 [28]: 143 nM | TGI [28]: 575 nM | GI50 [53]: 132 nM | TGI [53]: 1040 nM | GI50 [29]: 246 nM | TGI [29]: 2350 nM | GI50 [30]: 244 nM | TGI [30]: 3420 nM | GI50 [54]: 131 nM | TGI [54]: 759 nM | GI50 [55]: 172 nM | TGI [55]: 1080 nM | GI50 [31]: 202 nM | TGI [31]: > 100000 nM | GI50 [56]: 484 nM | TGI [56]: > 48400 nM | GI50 [57]: 150 nM | TGI [57]: 6840 nM | GI50 [58]: 236 nM | TGI [58]: 4760 nM | GI50 [32]: 327 nM | TGI [32]: 2990 nM | GI50 [33]: 127 nM | TGI [33]: 925 nM | GI50 [34]: 204 nM | TGI [34]: 1490 nM | GI50 [35]: 40.3 nM | TGI [35]: 938 nM | GI50 [36]: 208 nM | TGI [36]: 988 nM | GI50 [37]: < 13.5 nM | TGI [37]: 127 nM | GI50 [59]: 52.4 nM | TGI [59]: 1470 nM | GI50 [38]: 309 nM | TGI [38]: 3540 nM
